Laboratory results taken from patent publication US20250263426A1, “PDE4B INHIBITOR AND USE THEREOF” (Xizang Haisco Pharmaceutical Co., Ltd., priority 2022, published 2025).
Like-named read-outs stand apart in the source and are kept apart here.

Experiments:
PDE4D2 = PDE4D2 (Homo sapiens (Human), UniProt Q08499); assay: Effect of compounds on PDE4D2 activity (fluorescence polarization kit); assay type: biochemical
Experimental: FP was usually represented by mP value.
[formula] • I∥ (S520): fluorescence intensity in parallel direction • I⊥ (P520): fluorescence intensity in perpendicular direction • G: G factor=1
(§1) [formula] • mP(sample): mP of the test compound in a reaction well • mP(negative control): mP in the negative control well • mP(positive control): mP in the positive control well
According to the calculated inhibition rate at each concentration, the IC50 value of each compound was calculated by GraphPad Prism 8 software.

[1] = Pharmacokinetic test in rats; assay type: in vivo; conditions: male, SD
Experimental: 7.1 Experimental animals: Male SD rats, about 220 g, 6-8 weeks old, 6 rats/compound, purchased from Chengdu Ddossy Experimental Animals Co., Ltd.
7.2 Experiment design: On the day of the experiment, 6 SD rats were randomly grouped according to their body weights. The animals were fasted with water available for 12 to 14 h one day before the administration and were fed 4 h after the administration.

PDE4B2 = PDE4B2 (Homo sapiens (Human), UniProt Q07343); assay: Effect of compounds on PDE4B2 activity (fluorescence polarization kit)
Sequence of PDE4B2 (Q07343 other isoform, or with tags, fused parts or gaps): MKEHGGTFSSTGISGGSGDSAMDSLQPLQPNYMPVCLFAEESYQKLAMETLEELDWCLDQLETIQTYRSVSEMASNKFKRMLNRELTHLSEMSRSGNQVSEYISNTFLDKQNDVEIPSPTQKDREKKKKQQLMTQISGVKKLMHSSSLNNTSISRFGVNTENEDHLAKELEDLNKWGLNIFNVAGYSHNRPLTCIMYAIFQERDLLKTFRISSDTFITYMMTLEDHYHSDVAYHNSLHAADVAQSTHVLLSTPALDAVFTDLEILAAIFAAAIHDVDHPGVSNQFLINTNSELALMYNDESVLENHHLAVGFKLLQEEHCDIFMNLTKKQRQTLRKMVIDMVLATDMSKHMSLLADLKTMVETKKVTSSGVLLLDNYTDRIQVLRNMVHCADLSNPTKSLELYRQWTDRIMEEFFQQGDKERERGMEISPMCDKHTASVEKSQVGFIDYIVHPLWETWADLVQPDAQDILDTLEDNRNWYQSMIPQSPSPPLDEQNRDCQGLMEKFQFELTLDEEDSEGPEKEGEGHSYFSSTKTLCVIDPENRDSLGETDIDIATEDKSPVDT
Text: [formula] • I∥ (S535): fluorescence intensity in parallel direction • I⊥ (P535): fluorescence intensity in perpendicular direction • G: G factor=1

[2] = tested on: human peripheral blood mononuclear cells (TNF-α release); assay: Inhibition of LPS-induced TNF-α release from human peripheral blood mononuclear cells in vitro; assay type: cell-based; conditions: 4 h; for IC50: read-out: Re IC50; for Emax: read-out: Max inhibition (%)
Experimental: 5. Detection of Inhibitory Activity of Compounds on the Release of Tumor Necrosis Factor-α (TNF-α) from Human Peripheral Blood Mononuclear Cells Induced by Lipopolysaccharide (LPS) In Vitro
The concentration of hPBMC cells was adjusted to 0.25×10^6 cells/mL with RPMI1640 medium and inoculated into a 96-well plate in an amount of 50000 cells per well. […] Incubation was carried out for 4 h in an incubator at 37° C. and 5% CO2. The cell supernatant was collected, and the content of TNF-α in the supernatant sample was detected by human TNF-α Elisa quantitative test kit (Sino Biological, Cat #KIT10602). The IC50 value was calculated using GraphPad Prism software.

PDE4B1 = PDE4B1 (Homo sapiens (Human), UniProt Q07343); assay: Effect of compounds on PDE4B1 activity (IMAP fluorescence polarization kit); assay type: biochemical
Sequence of PDE4B1 (Q07343 whole entry): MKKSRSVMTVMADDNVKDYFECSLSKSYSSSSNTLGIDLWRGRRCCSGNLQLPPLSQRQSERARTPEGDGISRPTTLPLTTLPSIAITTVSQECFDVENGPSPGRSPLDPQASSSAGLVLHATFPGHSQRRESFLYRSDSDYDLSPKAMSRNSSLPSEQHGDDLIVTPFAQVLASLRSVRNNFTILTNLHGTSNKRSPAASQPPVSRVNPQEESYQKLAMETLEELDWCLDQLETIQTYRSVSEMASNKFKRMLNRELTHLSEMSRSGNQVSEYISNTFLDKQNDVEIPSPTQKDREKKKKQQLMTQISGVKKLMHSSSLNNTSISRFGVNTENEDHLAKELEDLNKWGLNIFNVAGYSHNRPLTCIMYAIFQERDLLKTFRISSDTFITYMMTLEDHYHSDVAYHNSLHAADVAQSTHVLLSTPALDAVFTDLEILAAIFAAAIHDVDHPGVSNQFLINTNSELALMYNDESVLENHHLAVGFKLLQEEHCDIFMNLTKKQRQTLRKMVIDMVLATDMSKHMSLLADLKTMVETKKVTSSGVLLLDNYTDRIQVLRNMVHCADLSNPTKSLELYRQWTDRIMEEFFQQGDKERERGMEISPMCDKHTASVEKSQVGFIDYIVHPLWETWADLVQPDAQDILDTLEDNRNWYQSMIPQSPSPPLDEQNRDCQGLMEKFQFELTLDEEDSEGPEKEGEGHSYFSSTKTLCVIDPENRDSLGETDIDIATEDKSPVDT
Experimental: The effect of compounds on PDE4B1 activity was detected using a fluorescence polarization kit (IMAP FP IPP Explorer KIT, Molecular Device, Cat #R8124). The IMAP Reaction Buffer containing 0.1% BSA (5×) in the kit was diluted into a 1-fold reaction buffer containing 1 mM DTT. 0.12 nM PDE4B1 (BPS, Cat #60041) was added to the 1-fold reaction buffer to form a 2-fold enzyme solution. 10 μL of the 2-fold enzyme solution was added to wells of a 384-well reaction plate. For the negative control well, 10 μL of the 1-fold reaction buffer was used instead of the enzyme solution. Centrifugation at 1000 rpm for 1 minute and incubation at room temperature for 15 minutes were carried out. 0.2 uM FAM-labeled cAMP (FAM-cAMP, Molecular Device, Cat #R7506) was added to the 1-fold reaction buffer to form a 2-fold substrate solution. 10 μL of the 2-fold substrate solution was added to each well of the 384-well reaction plate. Centrifugation at 1000 rpm for 1 minute was carried out. A reaction was carried out at room temperature for 20 minutes. IMAP Progressive Binding Buffer A (5×), IMAP Progressive Binding Buffer B (5×), and IMAP Progressive Binding Reagent (provided by IMAP FP IPP Explorer Kit) were prepared into a reaction stop solution according to the instructions for use. 60 μL of an […] reaction stop solution was added to each well of the 384-well reaction plate to stop the reaction, and the reaction product was centrifuged at 1000 rpm for 1 minute. Incubation at room temperature in the dark for 60 minutes was carried out. The mP values (Ex480/Em535 (s), Em535 (p)) were read by a microplate reader (Envision).
FP was usually represented by mP value. mP value for FP measurement=1000*(S−G*P)/(S+G*P) • S: fluorescence intensity in parallel direction • P: fluorescence intensity in perpendicular direction • G: G factor=1
as §1
According to the calculated inhibition rate at each concentration, the IC50 value of each compound was calculated by XLFit excel add-in version 5.4.0.8 software.

[3] = Pharmacokinetic test in mice; assay type: in vivo, ICR mice; conditions: for half-life: read-out: T½ (converted)
Experimental: 6.1 Experimental animals: Male ICR mice, 20-25 g, 6 mice/compound, purchased from Chengdu Ddossy Experimental Animals Co., Ltd.
6.2 Experiment design: On the day of the experiment, 6 ICR mice were randomly grouped according to their body weights. The animals were fasted with water available for 12 to 14 h one day before the administration and were fed 4 h after the administration.

[4] = Pharmacokinetic test in beagle dogs; assay type: in vivo; conditions: for half-life: read-out: T½ (converted)
Experimental: 8.1 Experimental animals: Male beagle dogs, about 8-11 kg, 6 beagle dogs/compound, purchased from Beijing Marshall Biotechnology Co., Ltd.
8.2 Experimental method: On the day of the experiment, 6 beagle dogs were randomly grouped according to their body weights. The animals were fasted with water available for 12 to 14 h one day before the administration and were fed 4 h after the administration. Administration was carried out according to Table 10.

[5] = Homo sapiens, PBMC, hPBMC, 100 ng/mL LPS
[6] = relative IC50, hPBMC, 100 ng/mL LPS
[7] = male, ICR, iv, mouse plasma, i.v. 2.5 mg/kg
[8] = male, ICR, po, mouse plasma, i.g. 10 mg/kg
[9] = male, iv, beagle dog plasma, i.v. 1 mg/kg
[10] = male, po, beagle dog plasma, i.g. 3 mg/kg

Sequence of PDE4D2 (Q08499 303-809, change not shown): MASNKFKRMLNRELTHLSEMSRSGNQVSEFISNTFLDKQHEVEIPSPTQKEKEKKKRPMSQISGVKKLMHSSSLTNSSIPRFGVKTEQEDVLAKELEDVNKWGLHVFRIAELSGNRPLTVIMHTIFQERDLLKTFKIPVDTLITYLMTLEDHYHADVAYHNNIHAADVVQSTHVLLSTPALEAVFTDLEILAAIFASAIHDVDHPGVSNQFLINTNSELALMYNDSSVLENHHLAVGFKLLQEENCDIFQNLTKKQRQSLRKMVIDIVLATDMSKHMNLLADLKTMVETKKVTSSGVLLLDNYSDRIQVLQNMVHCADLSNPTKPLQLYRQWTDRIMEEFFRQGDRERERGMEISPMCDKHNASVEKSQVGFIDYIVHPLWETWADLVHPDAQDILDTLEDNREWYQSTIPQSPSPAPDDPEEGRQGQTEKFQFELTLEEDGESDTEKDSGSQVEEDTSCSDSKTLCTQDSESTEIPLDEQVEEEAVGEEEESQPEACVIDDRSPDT

Row | SMILES | IC50 (PDE4D2) | IC50 (PDE4B1) | IC50 (PDE4B2; read-out: PDE4B2 IC50) | Max inhibition (%) ([2]; hPBMC, 100 ng/mL LPS) | IC50 [2, 6] | further results
1 | [O-][S@@+]1CCCc2nc(N3CC=C(c4ccc(Cl)cc4)CC3)nc(NC3(CO)CCC3)c21 [Compound 8-2] | < 10 nM | < 10 nM | – | – | – | –
2 | [O-][S@+]1CCCc2nc(N3CCC(c4ccc(Cl)cc4)CC3)nc(NC3(CO)CCC3)c21 [Compound 10-2] | – | 10 to 50 nM | – | – | – | –
3 | C#Cc1ccc(C2=CCN(c3nc4c(c(NC5([C@@H](C)O)CCC5)n3)[S@@+]([O-])CC4)CC2)nc1 [Compound 95-3] | < 10 nM | – | < 10 nM | 81.97% | < 10 nM | –
4 | C#Cc1cnc(C2=CCN(c3nc4c(c(NC5([C@H](C)O)CCC5)n3)[S@+]([O-])CC4)CC2)nc1 [Compound 96-2] | < 10 nM | – | < 10 nM | 81.63% | < 10 nM | –
5 | [O-][S@+]1CCc2nc(N3CC=C(c4ncc(Cl)cn4)CC3)nc(Nc3ccnc(F)c3)c21 [Compound 85-1] | < 10 nM | – | < 10 nM | 71.38% | < 10 nM | –
6 | C#Cc1cnc(C2=CCN(c3nc4c(c(Nc5cccc(F)c5)n3)[S@+]([O-])CC4)CC2)nc1 [Compound 36-1] | < 10 nM | – | < 10 nM | 73.52% | < 10 nM | –
7 | [O-][S+]1CCCc2nc(N3CCC(c4ncc(Cl)cn4)CC3)nc(NC3(CO)CCC3)c21 (centres unmarked) [Compound 3] | < 10 nM | < 10 nM | 10 to 50 nM | – | – | –

More lines, main results first:

Row | IC50 (PDE4D2) | IC50 (PDE4B1) | SMILES | IC50 (PDE4B2; read-out: PDE4B2 IC50) | Max inhibition (%) ([2]; hPBMC, 100 ng/mL LPS) | IC50 [2, 6] | further results
8 | < 10 nM | – | CC(C)(COC(N)=O)Nc1nc(N2CC=C(c3ncc(C4CC4)cn3)CC2)nc2c1[S@+]([O-])CC2 [Compound 84] | – | – | – | AUC(0-t) ([1]; iv, rat plasma, i.v. 2.5 mg/kg): 16500 ng·h/mL; clearance ([1]; iv, rat plasma, i.v. 2.5 mg/kg): 2.54 ± 0.32 mL/min/kg; Vd ([1]; iv, rat plasma, i.v. 2.5 mg/kg, read-out: Vdss): 0.324 ± 0.012 L/kg; bioavailability ([1]; plasma, po, rat, i.g. 10 mg/kg): 78.9 ± 32%; AUC(0-t) ([1]; po, rat plasma, i.g. 10 mg/kg): 52200 ng·h/mL; IC50 (PDE4B2): < 10 nM; IC50 ([2]; Homo sapiens, PBMC): < 10 nM; Emax [2, 5]: 68%
9 | < 10 nM | – | CC#Cc1ccc(C2=CCN(c3nc4c(c(NC5(COC(N)=O)CCC5)n3)[S@+]([O-])CC4)CC2)nc1 [Compound 98] | – | – | – | IC50 (PDE4B2): < 10 nM; IC50 ([2]; Homo sapiens, PBMC): < 10 nM; Emax [2, 5]: 72.7%
10 | < 10 nM | – | CC(C)(COC(N)=O)Nc1nc(N2CC=C(c3ncc(Cl)cn3)CC2)nc2c1[S@+]([O-])CC2 [Compound 51] | – | – | – | AUC(0-t) [3, 7]: 5420 ± 926 ng·h/mL; clearance [3, 7]: 7.81 ± 1.4 mL/min/kg; half-life [3, 7]: 2.82 ± 0.23 h; Vd ([3]; male, ICR, iv, mouse plasma, i.v. 2.5 mg/kg, read-out: Vdss): 1.29 ± 0.039 L/kg; AUC(0-t) [3, 8]: 30100 ± 5360 ng·h/mL; half-life [3, 8]: 3.33 ± 0.58 h; F ([3]; mouse, i.g. 10 mg/kg): >98%; IC50 (PDE4B2): < 10 nM; IC50 ([2]; Homo sapiens, PBMC): < 10 nM; Emax [2, 5]: 69%; F ([4]; beagle dog, i.g. 3 mg/kg): 74.9 ± 11%; AUC(0-t) [4, 9]: 4990 ± 239 ng·h/mL; clearance [4, 9]: 3.06 ± 0.18 mL/min/kg; half-life [4, 9]: 12.8 ± 3.8 h; Vd ([4]; male, iv, beagle dog plasma, i.v. 1 mg/kg, read-out: Vdss): 3.08 ± 0.61 L/kg; AUC(0-t) [4, 10]: 11200 ± 1710 ng·h/mL; half-life [4, 10]: 16.1 ± 5.5 h
11 | 10 to 50 nM | < 10 nM | [O-][S@@+]1CCCc2nc(N3CCN(c4ccc(Cl)cc4)CC3)nc(NC3(CO)CCC3)c21 [Compound 11-1] | – | – | – | –
12 | 50 to 100 nM | – | CC#Cc1cnc2c(c1)OC[C@H]1CN(c3nc4c(c(NC(C)(C)CNC(=O)OC)n3)[S@+]([O-])CC4)CCN21 [Compound 140-2] | 10 to 50 nM | 89.58% | 10 to 50 nM | –
13 | < 10 nM | < 10 nM | [O-][S@@+]1CCCc2nc(N3CC=C(c4ncc(Cl)cn4)CC3)nc(NC3(CO)CCC3)c21 [Compound 9-2] | – | 69.47% | 10 to 50 nM | –
14 | 10 to 50 nM | – | CNC(=O)OCC(C)(C)Nc1nc(N2CC=C(c3ncc(Cl)cn3)CC2)nc2c1[S@+]([O-])CC2 [Compound 104] | – | – | – | IC50 (PDE4B2): 10 to 50 nM; IC50 ([2]; Homo sapiens, PBMC): 10 to 50 nM; Emax [2, 5]: 78.8%
15 | 10 to 50 nM | – | CC#Cc1cnc2c(c1)OC[C@@H]1CN(c3nc4c(c(NC(C)(C)CNC(=O)OC)n3)[S@+]([O-])CC4)CCN21 [Compound 140-1] | 10 to 50 nM | 93.38% | < 10 nM | –
